Source: publication PMC10266688 (PLOS ONE, 2023)
Several values for one entry are separate records, joined by “and”; a condition that tells them apart may be missing. Identical values can stand only once.

What was measured:
TC1-OVA cells = test: Antigen presentation (H-2Kb/[…]) by TC1-OVA cells, flow cytometry; type: cell-based, mouse; details: 0.25 μM, 12 h
Procedure: TC1 cells stably expressing Ovalbumin (TC1-OVA) were plated (125,000 cells/well) in a 6 well plate in 2 mL RPMI complete medium.
C) TC1-OVA cells were plated (125,000 cells/well) in a 6 well plate in 2 mL/well in complete medium.

[1] = Single administration dose escalation study (MTD, body weight, clinical observations), female CD1 mice; type: in vivo; details: for Body weight change, Mean / Body weight change: day 7 vs initial weight; for Body weight change, Mean: group mean
Procedure: Mice were dosed on day 1 and clinical condition recorded at 0.5 h, 2 h, 4 h, 6 h, and days 1–7 (S6 Table).
Gc - general condition observation
X - treatment with compound or vehicle

N#Cc1ccc(/C=C2/C(=O)/C(=C/c3ccc(C#N)cc3)C23CCNCC3)cc1 [Up284]
MHC class I antigen presentation (SIINFEKL on H-2Kb) (TC1-OVA cells): enhanced MHC class I antigen presentation
Body weight, Mean ([1]; IP 40 mg/kg single dose, day 0, group mean): 24.20 g
Body weight ([1]; IP 40 mg/kg single dose, day 0, individual mice, 40 mg/kg): 25.6 g and 24.3 g and 22.7 g
Body weight, Mean ([1]; IP 40 mg/kg single dose, day 1, group mean): 22.83 g
Body weight ([1]; IP 40 mg/kg single dose, day 1, individual mice, 40 mg/kg): 23.9 g and 22.7 g and 21.9 g
Body weight, Mean ([1]; IP 40 mg/kg single dose, day 2, group mean): 22.97 g
Body weight ([1]; IP 40 mg/kg single dose, day 2, individual mice, 40 mg/kg): 23.3 g and 22.3 g
Body weight, Mean ([1]; IP 40 mg/kg single dose, day 3, group mean): 23.80 g
Body weight ([1]; IP 40 mg/kg single dose, day 3, individual mice, 40 mg/kg): 24.2 g and 24.5 g and 22.7 g
Body weight, Mean ([1]; IP 40 mg/kg single dose, day 4, group mean): 23.87 g
Body weight ([1]; IP 40 mg/kg single dose, day 4, individual mice, 40 mg/kg): 24.5 g and 24.6 g and 22.5 g
Body weight, Mean ([1]; IP 40 mg/kg single dose, day 5, group mean): 24.43 g
Body weight ([1]; IP 40 mg/kg single dose, day 5, individual mice, 40 mg/kg): 25.0 g and 25.1 g and 23.2 g
Body weight, Mean ([1]; IP 40 mg/kg single dose, day 6, group mean): 24.13 g
Body weight ([1]; IP 40 mg/kg single dose, day 6, individual mice, 40 mg/kg): 25.3 g and 24.6 g and 22.5 g
Body weight, Mean ([1]; IP 40 mg/kg single dose, day 7, group mean): 24.83 g
Body weight ([1]; IP 40 mg/kg single dose, day 7, individual mice, 40 mg/kg): 26.2 g and 24.5 g and 23.8 g
Body weight change, Mean ([1]; IP 40 mg/kg single dose): 2.67%
Body weight change ([1]; IP 40 mg/kg single dose, individual mice, 40 mg/kg): 2.34% and 0.82% and 4.85%
Clinical observation ([1]; IP 40 mg/kg, day 0, 0.5 h, individual mice): DPEh
Clinical observation ([1]; IP 40 mg/kg, day 0, 2 h, individual mice): HDPEh
Clinical observation ([1]; IP 40 mg/kg, day 0, 4 h, individual mice): HDPEh
Clinical observation ([1]; IP 40 mg/kg, day 0, 6 h, individual mice): DPEh
Clinical observation ([1]; IP 40 mg/kg, day 0, time 0, individual mice): 0
Clinical observation ([1]; IP 40 mg/kg, day 1, individual mice, 40 mg/kg): 0
Clinical observation ([1]; IP 40 mg/kg, day 2, individual mice): 0
Clinical observation ([1]; IP 40 mg/kg, day 3, individual mice): 0
Clinical observation ([1]; IP 40 mg/kg, day 4, individual mice): 0
Clinical observation ([1]; IP 40 mg/kg, day 5, individual mice): 0
Clinical observation ([1]; IP 40 mg/kg, day 6, individual mice): 0
Clinical observation ([1]; IP 40 mg/kg, day 7, individual mice): 0
Body weight, Mean ([1]; IP 60 mg/kg single dose, day 0, group mean): 24.00 g
Body weight ([1]; IP 60 mg/kg single dose, day 0, individual mice, 60 mg/kg): 24.4 g and 25.1 g and 22.5 g
Body weight ([1]; IP 60 mg/kg single dose, day 1, individual mice): died
Body weight change, Mean ([1]; IP 60 mg/kg single dose): -100.00%
Clinical observation ([1]; IP 60 mg/kg, day 0, 0.5 h, individual mice): DPEh
Clinical observation ([1]; IP 60 mg/kg, day 0, 2 h, individual mice): HDPEh
Clinical observation ([1]; IP 60 mg/kg, day 0, 4 h, individual mice): HDPEh
Clinical observation ([1]; IP 60 mg/kg, day 0, 6 h, individual mice): DPEh
Clinical observation ([1]; IP 60 mg/kg, day 0, time 0, individual mice): 0
Clinical observation ([1]; IP 60 mg/kg, day 1, individual mice): died
Body weight, Mean ([1]; IV 40 mg/kg single dose, day 0, group mean): 24.50 g
Body weight ([1]; IV 40 mg/kg single dose, day 0, individual mice, 40 mg/kg): 26.2 g and 23.2 g and 24.1 g
Body weight, Mean ([1]; IV 40 mg/kg single dose, day 1, group mean): 23.90 g
Body weight ([1]; IV 40 mg/kg single dose, day 1, individual mice, 40 mg/kg): 25.5 g and 22.6 g and 23.6 g
Body weight, Mean ([1]; IV 40 mg/kg single dose, day 2, group mean): 24.07 g
Body weight ([1]; IV 40 mg/kg single dose, day 2, individual mice, 40 mg/kg): 25.7 g and 22.4 g and 24.1 g
Body weight, Mean ([1]; IV 40 mg/kg single dose, day 3, group mean): 25.03 g
Body weight ([1]; IV 40 mg/kg single dose, day 3, individual mice, 40 mg/kg): 26.5 g and 23.6 g and 25.0 g
Body weight, Mean ([1]; IV 40 mg/kg single dose, day 4, group mean): 25.23 g
Body weight ([1]; IV 40 mg/kg single dose, day 4, individual mice, 40 mg/kg): 27.7 g and 22.9 g and 25.1 g
Body weight, Mean ([1]; IV 40 mg/kg single dose, day 5, group mean): 25.17 g
Body weight ([1]; IV 40 mg/kg single dose, day 5, individual mice, 40 mg/kg): 28.0 g and 23.0 g and 24.5 g
Body weight, Mean ([1]; IV 40 mg/kg single dose, day 6, group mean): 24.97 g
Body weight ([1]; IV 40 mg/kg single dose, day 6, individual mice, 40 mg/kg): 27.2 g and 22.6 g and 25.1 g
Body weight, Mean ([1]; IV 40 mg/kg single dose, day 7, group mean): 25.07 g
Body weight ([1]; IV 40 mg/kg single dose, day 7, individual mice, 40 mg/kg): 27.2 g and 23.2 g and 24.8 g
Body weight change, Mean ([1]; IV 40 mg/kg single dose): 2.24%
Body weight change ([1]; IV 40 mg/kg single dose, individual mice, 40 mg/kg): 3.82% and 0.00% and 2.90%
Clinical observation ([1]; IV 40 mg/kg, day 0, 2 h, individual mice): 0
Clinical observation ([1]; IV 40 mg/kg, day 0, 4 h, individual mice): 0
Clinical observation ([1]; IV 40 mg/kg, day 0, 6 h, individual mice): 0
Clinical observation ([1]; IV 40 mg/kg, day 0, time 0, individual mice): 0
Clinical observation ([1]; IV 40 mg/kg, day 1, individual mice): 0
Clinical observation ([1]; IV 40 mg/kg, day 2, individual mice): 0
Clinical observation ([1]; IV 40 mg/kg, day 3, individual mice): 0
Clinical observation ([1]; IV 40 mg/kg, day 4, individual mice): 0
Clinical observation ([1]; IV 40 mg/kg, day 5, individual mice): 0
Clinical observation ([1]; IV 40 mg/kg, day 6, individual mice): 0
Clinical observation ([1]; IV 40 mg/kg, day 7, individual mice): 0
Body weight, Mean ([1]; IV 60 mg/kg single dose, day 0, group mean): 24.43 g
Body weight ([1]; IV 60 mg/kg single dose, day 0, individual mice, 60 mg/kg): 26.0 g and 22.7 g and 24.6 g
Body weight, Mean ([1]; IV 60 mg/kg single dose, day 1, group mean): 24.47 g
Body weight ([1]; IV 60 mg/kg single dose, day 1, individual mice, 60 mg/kg): 26.7 g and 22.6 g and 24.1 g
Body weight, Mean ([1]; IV 60 mg/kg single dose, day 2, group mean): 24.77 g
Body weight ([1]; IV 60 mg/kg single dose, day 2, individual mice, 60 mg/kg): 27.1 g and 23.4 g and 23.8 g
Body weight, Mean ([1]; IV 60 mg/kg single dose, day 3, group mean): 24.73 g
Body weight ([1]; IV 60 mg/kg single dose, day 3, individual mice, 60 mg/kg): 26.5 g and 23.7 g and 24.0 g
Body weight, Mean ([1]; IV 60 mg/kg single dose, day 4, group mean): 24.93 g
